Source: ChEMBL document CHEMBL6127061, “Discovery of orally bioavailable ALK PROTACs based ceritinib against ALK positive cancers” (Eur J Med Chem, 2024)

Columns and labels:
[1] = microsomes, 1 h, 1.5 µM
Description: Metabolic stability in liver microsomes (unknown origin) at 1.5 uM measured upto 60 mins in presence of NADPH by LC-MS/MS analysis

[2] = human, plasma, 1 h
Description: Metabolic stability in human plasma measured upto 60 mins in presence of NADPH by LC-MS/MS analysis

[3] = AUC(0 to 24 hrs) in ICR mouse at 1 mg/kg, iv measured upto 24 hrs by LC-MS/MS analysis; type: ADME, organism-based; conditions: in vivo
[4] = AUCinfinity in ICR mouse at 10 mg/kg, po measured upto 24 hrs by LC-MS/MS analysis; type: ADME, organism-based; conditions: in vivo
[5] = Cmax in ICR mouse at 10 mg/kg, po measured upto 24 hrs by LC-MS/MS analysis; type: ADME, organism-based; conditions: in vivo
[6] = MRT(0 to t) in ICR mouse at 10 mg/kg, po measured upto 24 hrs by LC-MS/MS analysis; type: ADME, organism-based; conditions: in vivo
[7] = AUC(0 to 24 hrs) in ICR mouse at 10 mg/kg, po measured upto 24 hrs by LC-MS/MS analysis; type: ADME, organism-based; conditions: in vivo
[8] = Half life in ICR mouse at 1 mg/kg, iv measured upto 24 hrs by LC-MS/MS analysis; type: ADME, organism-based; conditions: in vivo
[9] = Drug concentration in ICR mouse at 10 mmg/kg, po measured after 0.5 to 24 hrs; type: ADME, organism-based; conditions: in vivo, 10 mg/kg, time 0.5-24 hrs
[10] = AUCinfinity in ICR mouse at 1 mg/kg, iv measured upto 24 hrs by LC-MS/MS analysis; type: ADME, organism-based; conditions: in vivo
[11] = Cmax in ICR mouse at 1 mg/kg, iv measured upto 24 hrs by LC-MS/MS analysis; type: ADME, organism-based; conditions: in vivo
[12] = Oral bioavailability in ICR mouse at 10 mg/kg measured upto 24 hrs by LC-MS/MS analysis; type: ADME, organism-based; conditions: in vivo
[13] = Half life in ICR mouse at 10 mg/kg, po measured upto 24 hrs by LC-MS/MS analysis; type: ADME, organism-based; conditions: in vivo
[14] = MRTinfinity in ICR mouse at 10 mg/kg, po measured upto 24 hrs by LC-MS/MS analysis; type: ADME, organism-based; conditions: in vivo
[15] = MRT(0 to t) in ICR mouse at 1 mg/kg, iv measured upto 24 hrs by LC-MS/MS analysis; type: ADME, organism-based; conditions: in vivo
[16] = MRTinfinity in ICR mouse at 1 mg/kg, iv measured upto 24 hrs by LC-MS/MS analysis; type: ADME, organism-based; conditions: in vivo
[17] = Tmax in ICR mouse at 1 mg/kg, iv measured upto 24 hrs by LC-MS/MS analysis; type: ADME, organism-based; conditions: in vivo
[18] = Tmax in ICR mouse at 10 mg/kg, po measured upto 24 hrs by LC-MS/MS analysis; type: ADME, organism-based; conditions: in vivo

Stability [1]	Stability [2]	AUC(0-t) at 24 h [3]	AUC(0-inf) [4]	Cmax [5]	MRT last at 24 h [6]	AUC(0-t) at 24 h [7]	half-life [8]	Drug uptake [9]	AUC(0-inf) [10]	Cmax [11]	bioavailability [12]	half-life [13]	MRT inf [14]	MRT last at 24 h [15]	MRT inf [16]	Tmax [17]	Tmax [18]	Compound
Stable	Stable																	Cc1cc(Nc2ncc(Cl)c(Nc3ccccc3S(=O)(=O)C(C)C)n2)c(OC(C)C)cc1C1CCN(C2CCN(C3CN(c4ccc5c(c4)C(=O)N(C4CCC(=O)NC4=O)C5=O)C3)CC2)CC1 (stereo not given)
Stable	Stable	17600 ng·h/mL	30800 ng·h/mL	1710 ng/mL	8.61 h	23900 ng·h/mL	10.8 h	400 ng/mL	21700 ng·h/mL	3000 ng/mL	14.2%	11.2 h	15.7 h	7.19 h	13.2 h	4.98 min	4 h	Cc1cc(Nc2ncc(Cl)c(Nc3ccccc3S(=O)(=O)C(C)C)n2)c(OC(C)C)cc1C1CCN(C2CN(C3CCN(c4ccc5c(c4)C(=O)N(C4CCC(=O)NC4=O)C5=O)CC3)C2)CC1 (stereo not given)
